Holding throughout (format): functional, organism-based, Influenza A virus (A/Texas/12/2007(H3N2))
Common to all, as to details: mdck

Experiment [1] relates to Influenza A virus.
The test system of experiment [2] is Influenza A virus. This is another data set of the same source.
Experiment [3] concerns Influenza A virus. This is another data set of the same source.
In experiment [4] the test system is Influenza A virus. This is another data set of the same source.
Experiment [5] relates to Influenza A virus. The source holds these as a separate data set.
Experiment [6] concerns Influenza A virus. The source holds these as a separate data set.
Experiment [7] has as its system Influenza A virus. This is another data set of the same source.

This passage reports IC50 results from ChEMBL document CHEMBL1255450, “Detection of E119V and E119I mutations in influenza A (H3N2) viruses isolated from an immunocompromised patient: challenges in diagnosis of oseltamivir resistance” (Antimicrob Agents Chemother, 2010).

By IC50 is commonly meant the concentration that gives 50% inhibition. Regarding `CCC(CC)[C@H](NC(C)=O)[C@@H]1[C@H](O)[C@@H](C(=O)O)C[C@H]1NC(=N)N` [PERAMIVIR ANHYDROUS], the IC50 in the experiment on Influenza A virus [1] came to 0.51 nM; with Influenza A virus [2], 0.43 nM; in the experiment on Influenza A virus [3], 0.9 nM; in the experiment with Influenza A virus [4] (read-out: IC50), 33.6 nM; in the experiment with Influenza A virus [5], 1.47 nM; in the experiment with Influenza A virus [6] it was 214 nM.

Turning to `CC(=O)N[C@H]1[C@H]([C@H](O)[C@H](O)CO)OC(C(=O)O)=C[C@@H]1NC(=N)N` [ZANAMIVIR], the IC50 with Influenza A virus [1] was 1.54 nM; with Influenza A virus [3] it was 12.7 nM; in the experiment on Influenza A virus [4] (read-out: IC50) it was 3.8 nM; in the experiment on Influenza A virus [6], 18.6 nM.

For `CCOC(=O)C1=C[C@@H](OC(CC)CC)[C@H](NC(C)=O)[C@@H](N)C1` [OSELTAMIVIR], the IC50 in the experiment with Influenza A virus [7] was 9.18 nM; in the experiment with Influenza A virus [1], 8.06 nM; in the experiment on Influenza A virus [2], 5.49 nM; in the experiment on Influenza A virus [3], 33.2 nM; in the experiment on Influenza A virus [4] it was 154 nM; in the experiment with Influenza A virus [5], 246 nM. This compound also gave an IC50 with Influenza A virus [6] of 431 nM.

In the case of `C/C=C\[C@@H]1C[C@H](C(=O)O)N[C@H]1[C@@H](NC(C)=O)[C@](C)(CCC)OC`, the IC50 came out at 1.35 nM in the experiment on Influenza A virus [1]; 1.25 nM in the experiment with Influenza A virus [2]; 4.96 nM in the experiment with Influenza A virus [3]; 3 nM in the experiment with Influenza A virus [4] (read-out: IC50); 5.45 nM in the experiment with Influenza A virus [5]; 23.9 nM in the experiment on Influenza A virus [6].
